The assay deals with MV-4-11 cells. Put plainly: Gene expression microarray analysis (Affymetrix PrimeView) and GSEA. Format: cell-based, human. Details: RFU PODN (11730768_x_at) / Fold change /veh PODN (11730768_x_at) / RFU LINC00158 (11744669_a_at) / Fold change /veh LINC00158 (11744669_a_at) / RFU DUSP10 (11751237_a_at) / Fold change /veh DUSP10 (11751237_a_at) / RFU ID3 (11757404_x_at) / Fold change /veh ID3 (11757404_x_at) / RFU PLEKHG5 (11737974_s_at) / Fold change /veh PLEKHG5 (11737974_s_at) / RFU LRRC4B (11730491_at) / Fold change /veh LRRC4B (11730491_at) / RFU GIMAP4 (11747438_a_at) / Fold change /veh GIMAP4 (11747438_a_at) / RFU KRT8 (11758183_x_at) / Fold change /veh KRT8 (11758183_x_at) / RFU CNN1 (11734310_a_at) / Fold change /veh CNN1 (11734310_a_at) / RFU VPS37D (11726825_at) / Fold change /veh VPS37D (11726825_at) / RFU C10orf10 (11716522_x_at) / Fold change /veh C10orf10 (11716522_x_at) / RFU KIR2DL2 /// KIR2DL4 /// KIR2DL5A /// KIR2DL5B /// KIR2DS1 /// KIR2DS2 /// KIR2DS3 /// KIR2DS4 /// KIR3DL3 /// KIR3DL3 /// KIR3DS1 (11738374_at) / Fold change /veh KIR2DL2 /// KIR2DL4 /// KIR2DL5A /// KIR2DL5B /// KIR2DS1 /// KIR2DS2 /// KIR2DS3 /// KIR2DS4 /// KIR3DL3 /// KIR3DL3 /// KIR3DS1 (11738374_at) / RFU C1QL1 (11718748_at) / Fold change /veh C1QL1 (11718748_at) / RFU TMPRSS4 (11747572_a_at) / Fold change /veh TMPRSS4 (11747572_a_at) / RFU HAMP (11756126_x_at) / Fold change /veh HAMP (11756126_x_at) / RFU RNFT2 (11725882_a_at) / Fold change /veh RNFT2 (11725882_a_at) / RFU NR4A2 (11747474_a_at) / Fold change /veh NR4A2 (11747474_a_at) / RFU ABCC12 (11746883_a_at) / Fold change /veh ABCC12 (11746883_a_at) / RFU TMEM136 (11760407_x_at) / Fold change /veh TMEM136 (11760407_x_at) / RFU CLDN22 /// WWC2 (11732394_at) / Fold change /veh CLDN22 /// WWC2 (11732394_at) / RFU HLA-DPB1 (11760878_x_at) / Fold change /veh HLA-DPB1 (11760878_x_at) / RFU SPINT1 (11716480_a_at) / Fold change /veh SPINT1 (11716480_a_at) / RFU GAP43 (11754022_s_at) / Fold change /veh GAP43 (11754022_s_at) / RFU A4GNT (11735810_at) / Fold change /veh A4GNT (11735810_at) / RFU PRB3 (11715151_x_at) / Fold change /veh PRB3 (11715151_x_at) / RFU TUBB4B (11761932_at) / Fold change /veh TUBB4B (11761932_at) / RFU CAPN14 (11732068_a_at) / Fold change /veh CAPN14 (11732068_a_at) / RFU TMCC2 (11721928_a_at) / Fold change /veh TMCC2 (11721928_a_at) / RFU IRGQ (11745062_a_at) / Fold change /veh IRGQ (11745062_a_at) / RFU FAM174B (11720279_a_at) / Fold change /veh FAM174B (11720279_a_at) / RFU TMPRSS4 (11748680_a_at) / Fold change /veh TMPRSS4 (11748680_a_at) / RFU FAM212B (11763350_a_at) / Fold change /veh FAM212B (11763350_a_at) / RFU PLEKHG5 (11743358_a_at) / Fold change /veh PLEKHG5 (11743358_a_at) / RFU ZSCAN30 (11745921_a_at) / Fold change /veh ZSCAN30 (11745921_a_at) / RFU CMKLR1 (11741424_a_at) / Fold change /veh CMKLR1 (11741424_a_at) / RFU LOC101060620 /// MAPK8IP1 (11723275_at) / Fold change /veh LOC101060620 /// MAPK8IP1 (11723275_at) / RFU SPTSSB (11747773_x_at) / Fold change /veh SPTSSB (11747773_x_at) / RFU PRSS12 (11739890_at) / Fold change /veh PRSS12 (11739890_at) / RFU BIN1 (11741810_x_at) / Fold change /veh BIN1 (11741810_x_at) / RFU WNT11 (11732464_a_at) / Fold change /veh WNT11 (11732464_a_at) / RFU C10orf10 (11716521_a_at) / Fold change /veh C10orf10 (11716521_a_at) / RFU C5orf56 (11738089_at) / Fold change /veh C5orf56 (11738089_at) / RFU CYB561 (11721691_x_at) / Fold change /veh CYB561 (11721691_x_at) / RFU ANKRD19P (11752326_a_at) / Fold change /veh ANKRD19P (11752326_a_at) / RFU OR2T12 /// OR2T33 /// OR2T8 (11738714_s_at) / Fold change /veh OR2T12 /// OR2T33 /// OR2T8 (11738714_s_at) / RFU VCAN (11748164_a_at) / Fold change /veh VCAN (11748164_a_at) / RFU JSRP1 (11732532_at) / Fold change /veh JSRP1 (11732532_at) / RFU KRTAP10-11 (11738290_x_at) / Fold change /veh KRTAP10-11 (11738290_x_at) / RFU MYO3A (11730013_a_at) / Fold change /veh MYO3A (11730013_a_at) / RFU EBF3 (11725865_a_at) / Fold change /veh EBF3 (11725865_a_at) / RFU CAMK2N1 (11719241_x_at) / Fold change /veh CAMK2N1 (11719241_x_at) / RFU C5orf56 (11738088_a_at) / Fold change /veh C5orf56 (11738088_a_at) / RFU OLFML3 (11715873_a_at) / Fold change /veh OLFML3 (11715873_a_at) / RFU LOC100653217 /// NTM (11731650_a_at) / Fold change /veh LOC100653217 /// NTM (11731650_a_at) / RFU MAPK11 (11762145_a_at) / Fold change /veh MAPK11 (11762145_a_at) / RFU FIZ1 (11724087_x_at) / Fold change /veh FIZ1 (11724087_x_at) / RFU OASL (11726364_x_at) / Fold change /veh OASL (11726364_x_at) / RFU SOX15 (11748057_x_at) / Fold change /veh SOX15 (11748057_x_at) / RFU CD79A (11719716_a_at) / Fold change /veh CD79A (11719716_a_at) / RFU HIST1H1D (11736915_at) / Fold change /veh HIST1H1D (11736915_at) / RFU CASKIN2 (11723855_a_at) / Fold change /veh CASKIN2 (11723855_a_at) / RFU LOC730098 (11760151_x_at) / Fold change /veh LOC730098 (11760151_x_at) / RFU OR4N2 (11742367_at) / Fold change /veh OR4N2 (11742367_at) / RFU PRRT2 (11749266_a_at) / Fold change /veh PRRT2 (11749266_a_at) / RFU SNX32 (11753110_a_at) / Fold change /veh SNX32 (11753110_a_at) / RFU CDHR5 (11726645_a_at) / Fold change /veh CDHR5 (11726645_a_at) / RFU RCAN1 (11760418_a_at) / Fold change /veh RCAN1 (11760418_a_at) / RFU FAM167A (11723789_a_at) / Fold change /veh FAM167A (11723789_a_at) / RFU FAM26E (11764081_at) / Fold change /veh FAM26E (11764081_at) / RFU ISYNA1 (11749810_s_at) / Fold change /veh ISYNA1 (11749810_s_at) / RFU ACY1 (11761880_at) / Fold change /veh ACY1 (11761880_at) / RFU 11764098_at / Fold change /veh 11764098_at / RFU SAMD14 (11745864_x_at) / Fold change /veh SAMD14 (11745864_x_at) / RFU NPB (11741838_a_at) / Fold change /veh NPB (11741838_a_at) / RFU TMPRSS6 (11731388_a_at) / Fold change /veh TMPRSS6 (11731388_a_at) / RFU KRTAP10-2 (11738614_at) / Fold change /veh KRTAP10-2 (11738614_at) / RFU ARHGAP8 /// PRR5-ARHGAP8 (11727945_x_at) / Fold change /veh ARHGAP8 /// PRR5-ARHGAP8 (11727945_x_at) / RFU KRTAP5-7 /// NADSYN1 (11734609_at) / Fold change /veh KRTAP5-7 /// NADSYN1 (11734609_at) / RFU RASL12 (11751679_a_at) / Fold change /veh RASL12 (11751679_a_at) / RFU CDKN2B (11736163_a_at) / Fold change /veh CDKN2B (11736163_a_at) / RFU PRF1 (11729649_at) / Fold change /veh PRF1 (11729649_at) / RFU, ZNF638 /// ZNF638-IT1 / Fold change vs veh, ZNF638 /// ZNF638-IT1 / RFU, PANK3 / Fold change vs veh, PANK3 / RFU, SH3YL1 / Fold change vs veh, SH3YL1 / RFU, ZEB2 / Fold change vs veh, ZEB2 / RFU, NRIP1 / Fold change vs veh, NRIP1 / RFU, PTTG1IP / Fold change vs veh, PTTG1IP / RFU, CAPN2 / Fold change vs veh, CAPN2 / RFU, MED14 / Fold change vs veh, MED14 / RFU, SNORA58 / Fold change vs veh, SNORA58 / RFU, C1orf63 / Fold change vs veh, C1orf63 / RFU, LRRFIP1 / Fold change vs veh, LRRFIP1 / RFU, NDUFAF7 / Fold change vs veh, NDUFAF7 / RFU, SLC12A2 / Fold change vs veh, SLC12A2 / RFU, IBTK / Fold change vs veh, IBTK / RFU, ESF1 / Fold change vs veh, ESF1 / Fold change vs veh, TMEM50B / RFU, TAOK1 / Fold change vs veh, TAOK1 / RFU, ACBD3 / Fold change vs veh, ACBD3 / RFU, TMA16 / Fold change vs veh, TMA16 / RFU, RWDD3 / Fold change vs veh, RWDD3 / RFU, BCAT1 / Fold change vs veh, BCAT1 / RFU, EDEM3 / Fold change vs veh, EDEM3 / RFU, TMEM33 / Fold change vs veh, TMEM33 / RFU, WDR75 / Fold change vs veh, WDR75 / RFU, AHCTF1 / Fold change vs veh, AHCTF1 / RFU, TFRC / Fold change vs veh, TFRC / RFU, ZDHHC17 / Fold change vs veh, ZDHHC17 / RFU, NOM1 / Fold change vs veh, NOM1 / RFU, ARL8B / Fold change vs veh, ARL8B / RFU, ZBTB11 / Fold change vs veh, ZBTB11 / RFU, TAMM41 / Fold change vs veh, TAMM41 / RFU, KIAA1704 /// LOC100996395 / Fold change vs veh, KIAA1704 /// LOC100996395 / RFU, ING1 / Fold change vs veh, ING1 / RFU, TRMT61B / Fold change vs veh, TRMT61B / RFU, FUBP3 / Fold change vs veh, FUBP3 / RFU, TP53 / Fold change vs veh, TP53 / RFU, TNKS2 / Fold change vs veh, TNKS2 / RFU, ZFP14 / Fold change vs veh, ZFP14 / RFU, ACTR2 / Fold change vs veh, ACTR2 / RFU, PPP3R1 / Fold change vs veh, PPP3R1 / RFU, PIK3R1 / Fold change vs veh, PIK3R1 / RFU, HNRNPA1 / Fold change vs veh, HNRNPA1 / RFU, RNF170 / Fold change vs veh, RNF170 / RFU, ZNF28 / Fold change vs veh, ZNF28 / RFU, RNGTT / Fold change vs veh, RNGTT / RFU, OGT / Fold change vs veh, OGT / RFU, BRD1 / Fold change vs veh, BRD1 / RFU, MARS / Fold change vs veh, MARS / RFU, ZNF655 / Fold change vs veh, ZNF655 / RFU, FAHD1 / Fold change vs veh, FAHD1 / RFU, BDP1 / Fold change vs veh, BDP1 / RFU, LRRCC1 / Fold change vs veh, LRRCC1 / RFU, ARID1A / Fold change vs veh, ARID1A / RFU, ZNF146 / Fold change vs veh, ZNF146 / RFU, ZNF330 / Fold change vs veh, ZNF330 / RFU, GPN3 / Fold change vs veh, GPN3 / RFU, C9orf123 / Fold change vs veh, C9orf123 / RFU, N4BP2L2 / Fold change vs veh, N4BP2L2 / RFU, ARFIP1 / Fold change vs veh, ARFIP1 / RFU, FAM179B / Fold change vs veh, FAM179B / RFU, BCL10 / Fold change vs veh, BCL10 / RFU, UHRF1BP1L / Fold change vs veh, UHRF1BP1L / RFU, BET1 / Fold change vs veh, BET1 / RFU, CNOT2 / Fold change vs veh, CNOT2 / RFU, ZNF268 / Fold change vs veh, ZNF268 / Fold change vs veh, ZNF507 / RFU, DGCR2 / Fold change vs veh, DGCR2 / RFU, WDSUB1 / Fold change vs veh, WDSUB1 / Fold change vs veh, HSP90B1 /// MIR3652 / RFU, ADSS / Fold change vs veh, ADSS / RFU, GK / Fold change vs veh, GK / RFU, ZNF148 / Fold change vs veh, ZNF148 / RFU, TAF9 / Fold change vs veh, TAF9 / RFU, SLC1A5 / Fold change vs veh, SLC1A5 / RFU, SLMO2 / Fold change vs veh, SLMO2 / RFU, ABCC4 / Fold change vs veh, ABCC4 / RFU, LOC101060439 /// RAP1B / Fold change vs veh, LOC101060439 /// RAP1B / RFU, RFX7 / Fold change vs veh, RFX7 / RFU, GTPBP10 / Fold change vs veh, GTPBP10 / RFU, CNEP1R1 / Fold change vs veh, CNEP1R1 / RFU, BIVM-ERCC5 /// ERCC5 / Fold change vs veh, BIVM-ERCC5 /// ERCC5 / RFU, ILF3 / Fold change vs veh, ILF3 / RFU 11762660_at / Fold change /veh 11762660_at / RFU VCAN (11757783_s_at) / Fold change /veh VCAN (11757783_s_at) / RFU DDX43 (11728927_at) / Fold change /veh DDX43 (11728927_at) / RFU KRT8 (11758188_x_at) / Fold change /veh KRT8 (11758188_x_at) / RFU NKD1 (11759106_at) / Fold change /veh NKD1 (11759106_at) / RFU SRD5A1 (11742802_a_at) / Fold change /veh SRD5A1 (11742802_a_at) / RFU TPSAB1 /// TPSB2 (11721975_s_at) / Fold change /veh TPSAB1 /// TPSB2 (11721975_s_at) / RFU GSTM3 (11746129_a_at) / Fold change /veh GSTM3 (11746129_a_at) / RFU IL23R (11737362_x_at) / Fold change /veh IL23R (11737362_x_at) / RFU TMEM51 (11727254_a_at) / Fold change /veh TMEM51 (11727254_a_at) / RFU PIWIL2 (11732686_x_at) / Fold change /veh PIWIL2 (11732686_x_at) / RFU ORM1 (11744905_x_at) / Fold change /veh ORM1 (11744905_x_at) / RFU CCDC152 (11743942_at) / Fold change /veh CCDC152 (11743942_at) / RFU ECM1 (11717891_a_at) / Fold change /veh ECM1 (11717891_a_at) / RFU IL23R (11748794_a_at) / Fold change /veh IL23R (11748794_a_at) / RFU TNFAIP8L3 (11732012_x_at) / Fold change /veh TNFAIP8L3 (11732012_x_at) / RFU MBOAT4 (11741988_at) / Fold change /veh MBOAT4 (11741988_at) / RFU 11764193_at / Fold change /veh 11764193_at / RFU TMEM53 (11763286_at) / Fold change /veh TMEM53 (11763286_at) / RFU MAGEB2 (11727129_at) / Fold change /veh MAGEB2 (11727129_at) / RFU TMEM200A (11744735_a_at) / Fold change /veh TMEM200A (11744735_a_at) / RFU CCDC152 (11751479_a_at) / Fold change /veh CCDC152 (11751479_a_at) / RFU FAM211A (11726209_a_at) / Fold change /veh FAM211A (11726209_a_at) / RFU RGS16 (11746705_a_at) / Fold change /veh RGS16 (11746705_a_at) / RFU VCAN (11755009_s_at) / Fold change /veh VCAN (11755009_s_at) / RFU RHOB (11743442_s_at) / Fold change /veh RHOB (11743442_s_at) / RFU RGS16 (11720943_a_at) / Fold change /veh RGS16 (11720943_a_at) / RFU RGS16 (11720944_at) / Fold change /veh RGS16 (11720944_at) / RFU, VPS4B / Fold change vs veh, VPS4B / RFU, CREB1 / Fold change vs veh, CREB1 / RFU, DNAJC13 / Fold change vs veh, DNAJC13 / RFU, GNAQ / Fold change vs veh, GNAQ / RFU, CDK5R1 / Fold change vs veh, CDK5R1 / RFU, ZRANB3 / Fold change vs veh, ZRANB3 / RFU, CUL4A / Fold change vs veh, CUL4A / RFU, CCNY / Fold change vs veh, CCNY / RFU, UFL1 / Fold change vs veh, UFL1 / RFU, COG3 / Fold change vs veh, COG3 / RFU, DIAPH2 / Fold change vs veh, DIAPH2 / RFU, SKA2 / Fold change vs veh, SKA2 / RFU, AFF3 / Fold change vs veh, AFF3 / RFU, LMF1 / Fold change vs veh, LMF1 / RFU, IPO11 / Fold change vs veh, IPO11 / RFU, DFFB / Fold change vs veh, DFFB / RFU, FOXP1 / Fold change vs veh, FOXP1 / RFU, CARD8 / Fold change vs veh, CARD8 / RFU, STRN3 / Fold change vs veh, STRN3 / RFU, ADK / Fold change vs veh, ADK / RFU, RASSF2 / Fold change vs veh, RASSF2 / RFU, WIPF1 / Fold change vs veh, WIPF1 / RFU, LARP1B / Fold change vs veh, LARP1B / RFU, RASA1 / Fold change vs veh, RASA1 / RFU, RB1 / Fold change vs veh, RB1 / RFU, PPFIA1 / Fold change vs veh, PPFIA1 / RFU, MAT2A / Fold change vs veh, MAT2A / RFU, CCT5 / Fold change vs veh, CCT5 / RFU, WDR92 / Fold change vs veh, WDR92 / RFU, CUX1 / Fold change vs veh, CUX1 / RFU, TTC7A / Fold change vs veh, TTC7A / RFU, TMEM135 / Fold change vs veh, TMEM135 / RFU, DEPTOR / Fold change vs veh, DEPTOR / RFU, CPM / Fold change vs veh, CPM / RFU, DNAJB6 / Fold change vs veh, DNAJB6 / RFU, CACNA2D3 / Fold change vs veh, CACNA2D3 / RFU, DTX4 / Fold change vs veh, DTX4 / RFU, TFCP2 / Fold change vs veh, TFCP2 / RFU, GMCL1 /// GMCL1P1 / Fold change vs veh, GMCL1 /// GMCL1P1 / RFU, AEBP2 / Fold change vs veh, AEBP2 / RFU, SNHG1 /// SNORD22 /// SNORD25 /// SNORD26 /// SNORD27 /// SNORD28 /// SNORD29 /// SNORD31 / Fold change vs veh, SNHG1 /// SNORD22 /// SNORD25 /// SNORD26 /// SNORD27 /// SNORD28 /// SNORD29 /// SNORD31 / Fold change (Aza/veh), C12orf56 (ProbeSet 11735607_a_at) / Fold change (ACY-1035/veh), C12orf56 (ProbeSet 11735607_a_at) / Fold change (Aza/veh), FGFR1OP (ProbeSet 11751329_s_at) / Fold change (ACY-1035/veh), FGFR1OP (ProbeSet 11751329_s_at) / Fold change (Aza/veh), VPS36 (ProbeSet 11739960_a_at) / Fold change (ACY-1035/veh), VPS36 (ProbeSet 11739960_a_at) / RFU SYPL1 (11715823_x_at) / Fold change /veh SYPL1 (11715823_x_at) / RFU IGFBP7 (11715501_s_at) / Fold change /veh IGFBP7 (11715501_s_at) / RFU REEP3 (11722064_at) / Fold change /veh REEP3 (11722064_at) / RFU IGLL1 (11728026_x_at) / Fold change /veh IGLL1 (11728026_x_at): dose or concentration left out as unconfirmed. As to conditions: ProbeSet 11728676_at; LIST B.

The source of these data is paper PMC5218480 (PLoS ONE, 2017).

As to `Nc1ncn([C@@H]2O[C@H](CO)[C@@H](O)[C@H]2O)c(=O)n1` [azacitidine], the “Fold change vs veh, MED14” value turned out to be 0.97.
